Laboratory results reported in US20240067651A1 (Biohaven Therapeutics Ltd., priority 2019, published 2024).

Tests used:
[1] = Stability in Simulated Intestinal Fluid (SIF); format: in vitro ADME; design: key: % parent compound remaining relative to 0-minute sample
Outline: (§1)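 Percent of parent remaining relative to time zero was measured by LC-MS/MS over 0–60 min at 37 °C, 150 rpm. Test compound was 2 μg/mL final in pepsin-containing SGF, pH 1.2, or pancreatin-containing SIF, pH 6.8. Degradation half-life was derived from the log-linear decay where enough points allowed.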

Plasma Stability = format: in vitro ADME, human
Outline: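 Parent compound quantified by LC-MS/MS after acetonitrile precipitation, reported as percent of control remaining (triplicate). Incubation: 1 hour, 37° C, fresh human plasma, compound at 1 μM.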

[2] = Stability in Simulated Gastric Fluid (SGF); format: in vitro ADME; design: key: % parent compound remaining relative to 0-minute sample
Outline: as §1

[3] = Caco-2 Permeability Assay; format: in vitro ADME, human; conditions: human
Outline: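 Bidirectional transport at 37 °C for 90 min, 10 μM donor concentration, with or without Pgp inhibitor, across 21-day Caco-2 monolayers with TEER >600 […] in HEPES-buffered HBSS, pH 7.4. LC-MS/MS of donor and receiver samples gives Papp, B→A/A→B efflux ratio and mass recovery.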

[4] = % remaining at 1 h in simulated intestinal fluid
[5] = % remaining at 1 h in human plasma
[6] = % remaining at 1 h in simulated gastric fluid
[7] = Caco-2, pH 7.4, Caco-2 monolayer
[8] = % remaining at 1 h, SIF with pancreatin pH 6.8, 2 μg/mL, 37° C.
[9] = % remaining at 1 h, human plasma, 1 μM, 37° C.
[10] = % remaining at 1 h, SGF with pepsin pH 1.2, 2 μg/mL, 37° C.
[11] = Caco-2, pH 7.4, donor 10 μM, 90 minutes, 37° C., direction not given
[12] = % @ 1 h (remaining) in simulated intestinal fluid
[13] = % @ 1 h (remaining) in human plasma
[14] = % @ 1 h (remaining) in simulated gastric fluid

Structure (SMILES) | SIF [1, 4] [% remaining] | human Plasma stability (Plasma Stability; [5]) [% remaining] | SGF [2, 6] | Papp at 90 min, 10 µM [3, 7] [×10⁻⁶ cm/s] | SIF [1, 8] | human Plasma stability (Plasma Stability; [9]) | SGF [2, 10] | Papp at 90 min, 10 µM [3, 11] [×10⁻⁶ cm/s] | SIF [1, 12] [% @ 1 h] | human Plasma stability (Plasma Stability; [13]) [% @ 1 h] | SGF [2, 14] [% @ 1 h]
CC(C)OCCn1c(=S)[nH]c(=O)c2c1ccn2COC(=O)OC1CN(C(=O)OC(C)(C)C)C1 [Example 125] | 17 | 3 | 85% remaining | 24.9 | – | – | – | – | – | – | –
CC(C)OCCn1c(=S)[nH]c(=O)c2c1ccn2COC(=O)CCC(=O)OC(C)(C)C [Example 126] | 67 | 2 | 100% | 13.5 | – | – | – | – | – | – | –
CC(C)OCCn1c(=S)[nH]c(=O)c2c1ccn2COC(=O)C1CN(C(=O)OC(C)(C)C)C1 [Example 127] | 6 | 1 | 80% remaining | 7.79 | – | – | – | – | – | – | –
CC(C)OCCn1c(=S)[nH]c(=O)c2c1ccn2COC(=O)[C@H]1CCN(C(=O)OC(C)(C)C)C1 [Example 130] | 64 | 4 | 61% remaining | 17.6 | – | – | – | – | – | – | –
CC(C)OCCn1c(SCOC(=O)C2CCN(C(=O)OC(C)(C)C)CC2)nc(=O)c2c1ccn2COC(=O)CCC(=O)OC(C)(C)C [Example 131] | 75 | 1 | 99% remaining | 6.58 | – | – | – | – | – | – | –
CC(C)OCCn1c(=S)n(COC(=O)C2CCN(C(=O)OC(C)(C)C)CC2)c(=O)c2c1ccn2COC(=O)CCC(=O)OC(C)(C)C [Example 132] | 71 | 11 | 9% remaining | 4.29 | – | – | – | – | – | – | –
CC(C)OCCn1c(SCOC(=O)C2CCNCC2)nc(=O)c2c1ccn2COC(=O)CCC(=O)O [Example 133] | 97 | 7 | 82% remaining | < 0.198 | – | – | – | – | – | – | –
CC(C)OCCn1c(=S)[nH]c(=O)c2c1ccn2COC(=O)C[C@H](NC(=O)CCCCCCCCCCC(=O)O)C(=O)O [Example 142, 11-{[(1S)-1-carboxy-3-oxo-3-({4-oxo-1-[2-(propan-2-yloxy)ethyl]-2-sulfanylidene-1H,2H,3H,4H,5H-pyrrolo[3,2-d]pyrimidin-5-yl}methoxy)propyl]carbamoyl}undecanoic acid] | – | – | – | – | 97% remaining | 97% remaining | 100% remaining | < 0.19 | – | – | –
CC(C)OCCn1c(=S)n(COC(=O)C(C)(C)C)c(=O)c2c1ccn2COC(=O)C(C)(C)C [Example 143, 2,2-Dimethyl-propionic acid 5-(2,2-dimethyl-propionyloxymethyl)-1-(2-isopropoxy-ethyl)-4-oxo-2-thioxo-1,2,4,5-tetrahydro-pyrrolo[3,2-d]pyrimidin-3-ylmethyl ester] | – | – | – | – | 82% | 21% | 62% | 3 | – | – | –
CCCC(=O)OCn1ccc2c1c(=O)[nH]c(=S)n2CCOC(C)C [Example 154] | – | – | – | 4.03 | – | – | – | – | 0 | 9 | 82
CCCC(=O)OCSc1nc(=O)c2c(ccn2COC(=O)CCC)n1CCOC(C)C [Example 155] | – | – | – | 2.79 | – | – | – | – | 0 | 1 | 73
CCC(=O)OCn1ccc2c1c(=O)[nH]c(=S)n2CCOC(C)C [Example 156] | – | – | – | 6.55 | – | – | – | – | 1 | 0 | 99
CC(C)OCCn1c(=S)[nH]c(=O)c2c1ccn2COC(=O)c1ccccc1.O=C(O)C(F)(F)F [Example 157] | – | – | – | 7.3 | – | – | – | – | 20 | 0 | 96
CC(=O)OCn1ccc2c1c(=O)[nH]c(=S)n2CCOC(C)C [Example 159] | – | – | – | 8.42 | – | – | – | – | 83 | 0 | 79
CCCCN(C)C(=O)OCSc1nc(=O)c2[nH]ccc2n1CCOC(C)C.O=C(O)C(F)(F)F [Example 160] | – | – | – | 15.8 | – | – | – | – | 95 | 99 | 92
CC(C)CN(C)C(=O)OCSc1nc(=O)c2c(ccn2COC(=O)N(C)CC(C)C)n1CCOC(C)C [Example 161] | – | – | – | 31.3 | – | – | – | – | 80 | 99 | 80

Structure (SMILES) | SIF [1, 4] [% remaining] | human Plasma stability (Plasma Stability; [5]) [% remaining] | SGF [2, 6] | Papp at 90 min, 10 µM [3, 7] [×10⁻⁶ cm/s] | SIF [1, 8] | human Plasma stability (Plasma Stability; [9]) | SGF [2, 10] | Papp at 90 min, 10 µM [3, 11] [×10⁻⁶ cm/s] | SIF [1, 12] [% @ 1 h] | human Plasma stability (Plasma Stability; [13]) [% @ 1 h] | SGF [2, 14] [% @ 1 h]
CCN(C)C(=O)OCSc1nc(=O)c2[nH]ccc2n1CCOC(C)C [Example 163] | – | – | – | 4.2 | – | – | – | – | 96 | 90 | 99
CC(C)OCCn1c(SCOC(=O)N(C)C)nc(=O)c2[nH]ccc21.O=C(O)C(F)(F)F [Example 164] | – | – | – | 4.2 | – | – | – | – | 99 | 98 | 100
CC(C)OCCn1c(SCOC(=O)N(C)C)nc(=O)c2c1ccn2COC(=O)N(C)C [Example 165, trifluoroacetic acid [2-({[(dimethylcarbamoyl)oxy]methyl}sulfanyl)-4-oxo-1-[2-(propan-2-yloxy)ethyl]-1H,4H,5H-pyrrolo[3,2-d]pyrimidin-5-yl]methyl N,N-dimethylcarbamate] | – | – | – | 2.56 | – | – | – | – | 99 | 97 | 84
CC(C)OCCn1c(SCOC(=O)N(C)C(C)C)nc(=O)c2[nH]ccc21.O=C(O)C(F)(F)F [Example 166] | – | – | – | 7.08 | – | – | – | – | 99 | 100 | 99
CC(C)OCCn1c(SCOC(=O)N(C)C(C)(C)C)nc(=O)c2[nH]ccc21.O=C(O)C(F)(F)F [Example 167] | – | – | – | 17.8 | – | – | – | – | 99 | 98 | 99
CC(C)OCCn1c(SCOC(=O)N(C)C(C)(C)C)nc(=O)c2c1ccn2COC(=O)N(C)C(C)(C)C.O=C(O)C(F)(F)F [Example 168] | – | – | – | 28.1 | – | – | – | – | 94 | 88 | 100
CCN(C)C(=O)OCn1ccc2c1c(=O)nc(SCOC(=O)N(C)C(C)C)n2CCOC(C)C.O=C(O)C(F)(F)F [Example 170] | – | – | – | 14.1 | – | – | – | – | 92 | 99 | 99
CC(C)OCCn1c(SCOC(=O)N(C)C(C)C)nc(=O)c2c1ccn2COC(=O)N(C)C(C)C.O=C(O)C(F)(F)F [Example 171] | – | – | – | 21.7 | – | – | – | – | 89 | 97 | 100
CC(C)CN(C)C(=O)OCSc1nc(=O)c2[nH]ccc2n1CCOC(C)C [Example 172] | – | – | – | 23.7 | – | – | – | – | 95 | 98 | 100
CC(C)OCCn1c(SCOC(=O)N(C)Cc2ccccc2)nc(=O)c2[nH]ccc21.O=C(O)C(F)(F)F [Example 173] | – | – | – | 20.5 | – | – | – | – | 99 | 99 | 95
CC(C)OCCn1c(SCOC(=O)N(C)CCc2ccccc2)nc(=O)c2[nH]ccc21.O=C(O)C(F)(F)F [Example 175] | – | – | – | 30.9 | – | – | – | – | 92 | 95 | 99
CC(C)OCCn1c(SCOC(=O)N(C)CCc2ccccc2)nc(=O)c2c1ccn2COC(=O)N(C)CCc1ccccc1.O=C(O)C(F)(F)F [Example 176] | – | – | – | 40.4 | – | – | – | – | 100 | 99 | 86
C=CCN(C)C(=O)OCSc1nc(=O)c2[nH]ccc2n1CCOC(C)C.O=C(O)C(F)(F)F [Example 177] | – | – | – | 15.2 | – | – | – | – | 89 | 99 | 99
C=CCN(C)C(=O)OCSc1nc(=O)c2c(ccn2COC(=O)N(C)CC=C)n1CCOC(C)C.O=C(O)C(F)(F)F [Example 178] | – | – | – | 19.4 | – | – | – | – | 75 | 86 | 99
C=CCCN(C)C(=O)OCSc1nc(=O)c2[nH]ccc2n1CCOC(C)C.O=C(O)C(F)(F)F [Example 179] | – | – | – | 14.5 | – | – | – | – | 91 | 99 | 95
C=CCCN(C)C(=O)OCSc1nc(=O)c2c(ccn2COC(=O)N(C)CCC=C)n1CCOC(C)C.O=C(O)C(F)(F)F [Example 180] | – | – | – | 25.9 | – | – | – | – | 82 | 99 | 99
